Reference: US6825230B2, “Spiro and dispiro 1,2,4-trixolane antimalarials” (Medicines for Malaria Venture MMV, priority 2002, dated 2004)
Converted amounts (≈) assume the structure as drawn. Like-named read-outs stand apart in the source and are kept apart here.

What was measured:
[1] = system: chloroquine-resistant K1 strain of P. falciparum; assay: In vitro antimalarial semiautomated microdilution assay ([3H]-hypoxanthine incorporation), K1 strain; type: cell-based, Plasmodium falciparum; settings: Plasmodium falciparum
Method in brief: (§1)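 Logit regression analysis yields the fifty percent inhibitory concentration. Compounds are tested by semiautomated microdilution on intraerythrocytic parasites drawn from asynchronous stock cultures, measuring [3H]-hypoxanthine incorporation.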

[2] = system: chloroquine-sensitive NF54 strain of P. falciparum; assay: In vitro antimalarial semiautomated microdilution assay ([3H]-hypoxanthine incorporation), NF54 strain; type: cell-based, Plasmodium falciparum; settings: Plasmodium falciparum
Method in brief: as §1

[3] = system: ANKA strain of Plasmodium berghei; assay: Single dose ED50/ED90/ED99 determination in infected mice; type: in vivo
Protocol: In the single dose ED50/ED98/ED99 determinations, Moro SPF or NMRI mice (group of three) infected with the ANKA strain of Plasmodium berghei were treated on day one post-infection. […] The SSV consists of 0.5% w/v CMC, 0.5% v/v benzyl alcohol, 0.4% v/v Tween 80, and 0.9% w/v sodium chloride in water. Antimalarial activity was measured by percent reduction in parasitemia on day three post-infection. The ED50/ED90 values were calculated by nonlinear fitting.
The ED50, ED90, and ED99 values were calculated by non-linear fitting with statistical program and were expressed in mg/kg.

[4] = system: ANKA strain of P. berghei; assay: Single dose STI in vivo screen in infected mice; parameters: species or system Plasmodium berghei; settings: for Survival (days) 10 mg/kg po: single 10 mg/kg po in 3% ethanol and 7% Tween 80; for Survival (days) 10 mg/kg po / Survival (days) 10 mg/kg SSV po / Survival (days) 10 mg/kg sc: untreated 6-7 days; for Activity (%) 10 mg/kg po: single 10 mg/kg po in 3% ethanol and 7% Tween 80 on day 1 post-infection; for Activity (%) 10 mg/kg po / Activity (%) 10 mg/kg SSV po / Activity (%) 10 mg/kg sc: percent reduction in parasitemia on day 3; for Survival (days) 10 mg/kg SSV po: single 10 mg/kg po in SSV; for Activity (%) 10 mg/kg SSV po: single 10 mg/kg po in standard suspending vehicle (SSV) on day 1 post-infection; for Survival (days) 10 mg/kg sc: single 10 mg/kg sc in 3% ethanol and 7% Tween 80; for Activity (%) 10 mg/kg sc: single 10 mg/kg sc in 3% ethanol and 7% Tween 80 on day 1 post-infection
[5] = system: Schistosoma mansoni 21-day-old schistosomules; assay: Effect on 21-day-old schistosomules in infected mice; type: in vivo; settings: for % reduction of schistosomule growth at day 21 after per os application of 200 mg/kg, FWR (%): female worm reduction rate
Protocol: Mice were infected with 100 Schistosoma mansoni cercariae on day 21 post-treatment. Each group was treated per os with trioxolanes at a single dose of 200 mg/kg. […] All groups were killed 4 weeks after treatment and the liver and intestine were removed and separated. The liver and intestine were compressed and alive male and female worms could be seen and counted. The effect of the compounds was evaluated by mean total and female worm burden.

[6] = system: Schistosoma mansoni adult worms (49-day-old); assay: Effect on adult schistosomes (49-day-old) in infected mice; type: in vivo; settings: for % reduction of adult worms growth at day 49 after per os application of 400 mg/kg, TWR (%) / Adult worms day 49, per os 400 mg/kg, DEAD WORM (%): single 400 mg/kg per os
Protocol: Mice were infected with 100 Schistosoma mansoni cercariae on day 49 post-treatment. Each group was treated per os with OZ compounds at single doses of 200, 400, and 600 mg/kg. Untreated mice served as the control. All groups were killed 4 weeks after treatment and the liver and intestine were removed and separated. The liver and intestine were compressed and alive male and female worms could be seen and counted.

[7] = K1, 72 h, read-out: IC50 (ng/ml) K1, chloroquine-resistant K1 strain, 72 h incubation
[8] = NF54, 72 h, read-out: IC50 (ng/ml) NF54, chloroquine-sensitive NF54 strain, 72 h incubation
[9] = Plasmodium berghei, po, single dose po in SSV on day 1 post-infection, parasitemia day 3, nonlinear fitting
[10] = single dose po in SSV on day 1 post-infection, parasitemia day 3, nonlinear fitting
[11] = single 200 mg/kg per os, 21-day-old schistosomules
[12] = single 200 mg/kg per os, 21-day-old schistosomules, total worm reduction rate
[13] = 49-day-old adults, total worm reduction rate
[14] = percentage of dead worm in the liver

SMILES	% reduction of schistosomule growth at day 21 after per os application of 200 mg/kg, FWR (%) [5, 11] [%]	% reduction of schistosomule growth at day 21 after per os application of 200 mg/kg, TWR (%) [5, 12] [%]	% reduction of adult worms growth at day 49 after per os application of 400 mg/kg, TWR (%) [6, 13]	Adult worms day 49, per os 400 mg/kg, DEAD WORM (%) [6, 14]	further results
c1cn(C[C@H]2CC[C@]3(CC2)OOC2(O3)C3CC4CC(C3)CC2C4)cn1 (stereo partly shown) [OZ179]	–	–	–	–	IC50 [1, 7]: 1.3 ng/mL (≈ 3.77 nM); IC50 [2, 8]: 1.1 ng/mL (≈ 3.19 nM); ED50 [3, 9]: 1.4 mg/kg; ED90 [3, 10]: 3.3 mg/kg; ED99 [3, 10]: 6.6 mg/kg; Survival (days) 10 mg/kg po ([4]; hydrochloride, 10 mg/kg): 11.3 days; Activity (%) 10 mg/kg po ([4]; hydrochloride, 10 mg/kg): 99.91%; Survival (days) 10 mg/kg SSV po ([4]; hydrochloride, 10 mg/kg): 10.3 days; Activity (%) 10 mg/kg SSV po ([4]; hydrochloride, 10 mg/kg): 99.78%; Survival (days) 10 mg/kg sc ([4]; hydrochloride, 10 mg/kg): 11.3 days; Activity (%) 10 mg/kg sc ([4]; hydrochloride, 10 mg/kg): 99.91%
c1cn(CC[C@H]2CC[C@]3(CC2)OOC2(O3)C3CC4CC(C3)CC2C4)cn1 (stereo partly shown) [OZ219]	–	–	–	–	IC50 ([1]; chloroquine-resistant K1 strain, 72 h incubation, read-out: IC50 (ng/ml) K1): 0.85 ng/mL (≈ 2.37 nM); IC50 ([2]; chloroquine-sensitive NF54 strain, 72 h incubation, read-out: IC50 (ng/ml) NF54): 1.6 ng/mL (≈ 4.46 nM); ED50 ([3]; Plasmodium berghei, single dose po in SSV on day 1 post-infection, parasitemia day 3, nonlinear fitting, read-out: ED50): 1.6 mg/kg; ED90 ([3]; po): 3.0 mg/kg; ED99 [3, 10]: 5.2 mg/kg; Survival (days) 10 mg/kg po [4]: 8.7 days; Activity (%) 10 mg/kg po [4]: 99.89%; Survival (days) 10 mg/kg SSV po [4]: 8.0 days; Activity (%) 10 mg/kg SSV po [4]: 99.82%; Survival (days) 10 mg/kg sc [4]: 9.3 days; Activity (%) 10 mg/kg sc [4]: 99.91%
CC(C)(C)C1CCC2(CC1)OOC1(O2)C2CC3CC(C2)CC1C3 (stereo not shown) [OZ18]	9	12	0/0%	0/0%	–
O=C(c1ccccc1)N1CCC2(CC1)OOC1(O2)C2CC3CC(C2)CC1C3 (stereo not shown) [OZ24]	61	65	21%	0%	–
C1C2CC3CC1CC(C2)C31OOC2(O1)C1CC3CC(C1)CC2C3 (stereo not shown) [OZ04]	7	7	0/0%	0/0%	–
c1ccc2c(c1)COC1(CCC3(CC1)OOC1(O3)C3CC4CC(C3)CC1C4)OC2 (stereo not shown) [OZ31]	63	60	4/4%	4/4%	–
CON=C1CCC2(CC1)OOC1(O2)C2CC3CC(C2)CC1C3 (stereo not shown) [OZ15]	70	63	0%	10%	–
C1CCC2(CC1)OOC1(O2)C2CC3CC(C2)CC1C3 (stereo not shown) [OZ03]	74	–	29%	8%	% reduction of schistosomule growth at day 21 after per os application of 200 mg/kg, TWR (%) ([5]; po, 200 mg/kg, 504 h): 74%
O=[N+]([O-])c1ccc(NN=C2CCC3(CC2)OOC2(O3)C3CC4CC(C3)CC2C4)c([N+](=O)[O-])c1 (stereo not shown) [OZ29]	20	28	0/0%	0/0%	–
CCCC1CCC2(CC1)OOC1(O2)C2CC3CC(C2)CC1C3 (stereo not shown) [OZ25]	84	86	46%	34%	–
C1COC2(CCC3(CC2)OOC2(O3)C3CC4CC(C3)CC2C4)O1 (stereo not shown) [OZ10]	73	66	28%	13%	% reduction of adult worms growth at day 49 after per os application of 600 mg/kg, TWR (%) ([6]; single 600 mg/kg per os, 49-day-old adults, total worm reduction rate): 21%; Adult worms day 49, per os 600 mg/kg, DEAD WORM (%) ([6]; single 600 mg/kg per os, percentage of dead worm in the liver): 23%
CC(C)(O)[C@H]1CC[C@]2(CC1)OOC1(O2)C2CC3CC(C2)CC1C3 (stereo partly shown) [OZ108]	28	30	28%	0%	IC50 [1, 7]: 68 ng/mL (≈ 211 nM); IC50 [2, 8]: 29 ng/mL (≈ 89.9 nM); Survival (days) 10 mg/kg po [4]: 5.0 days; Activity (%) 10 mg/kg po [4]: 0/0/0%; Survival (days) 10 mg/kg SSV po [4]: 5.0 days; Activity (%) 10 mg/kg SSV po [4]: 0/0/0%; Survival (days) 10 mg/kg sc [4]: 5.7 days; Activity (%) 10 mg/kg sc [4]: 0/0/0%
C[C@H]1[C@@H](OCc2ccc(C(=O)O)cc2)O[C@@H]2O[C@@]3(C)CC[C@H]4[C@H](C)CC[C@@H]1[C@@]24OO3 [Artelinate, artelinate, reference compound]	–	–	–	–	ED50 [3, 10]: 4.8 mg/kg; ED90 [3, 10]: 10 mg/kg; ED99 [3, 10]: 18 mg/kg
O=C1CCC2(CCO1)OOC1(O2)C2CC3CC(C2)CC1C3 (stereo not shown) [OZ17]	7	–	0%	5%	% reduction of schistosomule growth at day 21 after per os application of 200 mg/kg, TWR (%) ([5]; po, 200 mg/kg, 504 h): 23%
NC[C@H]1CC[C@]2(CC1)OOC1(O2)C2CC3CC(C2)CC1C3 (stereo partly shown) [OZ181]	–	–	–	–	ED50 [3, 9]: 0.63 mg/kg; ED90 [3, 10]: 1.8 mg/kg; ED99 [3, 10]: 4.0 mg/kg; Survival (days) 10 mg/kg po ([4]; 10 mg/kg): 9.0 days; Activity (%) 10 mg/kg po ([4]; 10 mg/kg): 99.98%; Survival (days) 10 mg/kg SSV po ([4]; 10 mg/kg): 10.0 days; Activity (%) 10 mg/kg SSV po ([4]; 10 mg/kg): 99.91%; Survival (days) 10 mg/kg sc ([4]; 10 mg/kg): 11.0 days; Activity (%) 10 mg/kg sc ([4]; 10 mg/kg): 100%
C1CCCCCC2(CCCCC1)OOC1(O2)C2CC3CC(C2)CC1C3 (stereo not shown) [OZ20]	0	0	0/0%	0/0%	–
C1CC2(CCN1)OOC1(O2)C2CC3CC(C2)CC1C3.Cl (stereo not shown) [OZ80]	75	79	–	–	% reduction of adult worms growth at day 49 after per os application of 200 mg/kg, TWR (%) ([6]; single 200 mg/kg per os, 49-day-old adults, total worm reduction rate): 0%; Adult worms day 49, per os 200 mg/kg, DEAD WORM (%) ([6]; single 200 mg/kg per os, percentage of dead worm in the liver): 3%
OCCC1CCC2(CC1)OOC1(O2)C2CC3CC(C2)CC1C3 (stereo not shown) [OZ89]	81	86	0%	17%	–
